# Reference: patent publication US20240358693A1, “METHODS OF TREATING PAIN” (Aisa Pharma, Inc., priority 2023, published 2024)
# Test system: participants with SSc-RP
# Test: Average duration of weekly RP attacks (minutes)
# Format: in vivo, human
# Excerpt: The absolute change in average duration of weekly RP attacks from baseline to the end of each dosing period was and will be a secondary outcome variable. The sponsor-developed participant-informed diary was and will be used to record data. Average duration of weekly RP attacks is defined as the total duration of RP attacks divided by total number of RP attacks within the last 7 days of each dosing period. Total duration of RP attacks during the last 7 days of screening period divided by the total number of RP attacks will be used as baseline for the analysis of all periods. The variable will be calculated similar to frequency data as before.
# [1] = Pooled Cilnidipine 20 mg and Cilnidipine 20 mg + Tadalafil 5 mg, Excluding Outliers, by Baseline RCS, subgroup 2, ITT Population - Part A
# [2] = Pooled Cilnidipine 20 mg and Cilnidipine 20 mg + Tadalafil 5 mg, ITT Part A
# [3] = Pooled Cilnidipine 20 mg and Cilnidipine 20 mg + Tadalafil 5 mg, by Baseline RCS, subgroup 1, ITT Population - Part A
# [4] = Pooled Cilnidipine 20 mg and Cilnidipine 20 mg + Tadalafil 5 mg, by Baseline RCS, subgroup 2, ITT Population - Part A
# [5] = Pooled Cilnidipine, n=3, Excluding Outliers, ITT Part A
# [6] = Pooled Cilnidipine, n=3, ITT Part A
# [7] = Pooled Cilnidipine, Baseline RCS subgroup 1 (unnamed), ITT Part A
# [8] = Pooled Cilnidipine, Excluding Outliers, Baseline RCS subgroup 1 (unnamed), ITT Part A
# [9] = Pooled Cilnidipine, Excluding Outliers, ITT Population - Part A
# [10] = Pooled Cilnidipine, Excluding Outliers, by Baseline RCS, subgroup 1, ITT Population - Part A
# [11] = Pooled Cilnidipine, by Baseline RCS, subgroup 1, ITT Population - Part A
smiles,measurement,setting,value
"COCCOC(=O)C1=C(C)NC(C)=C(C(=O)OC/C=C/c2ccccc2)C1c1cccc([N+](=O)[O-])c1 (centres unmarked) [Cilnidipine, cilnidipine]","Average Duration of Weekly RP Attacks (All Attacks) Change from Baseline, Median",[1],-19.09 min
same,"Average Duration of Weekly RP Attacks (All Attacks) Percent Change from Baseline, Mean",[1],−23.33%
same,"Average Duration of Weekly RP Attacks (All Attacks) Percent Change from Baseline, Median",[1],−23.33%
same,"Average Duration of Weekly RP Attacks (All Attacks), Mean",[1],62.73 min
same,"Average Duration of Weekly RP Attacks (All Attacks), Median",[1],62.73 min
same,"Average Duration of Weekly RP Attacks (All Attacks) Change from Baseline, Mean",[2],-4.77 min
same,"Average Duration of Weekly RP Attacks (All Attacks) Change from Baseline, Median",[2],-2.73 min
same,"Average Duration of Weekly RP Attacks (All Attacks) Percent Change from Baseline, Mean",[2],−13.86%
same,"Average Duration of Weekly RP Attacks (All Attacks) Percent Change from Baseline, Median",[2],−2.74%
same,"Average Duration of Weekly RP Attacks (All Attacks), Mean",[2],27.61 min
same,"Average Duration of Weekly RP Attacks (All Attacks), Median",[2],22.36 min
same,"Average Duration of Weekly RP Attacks (All Attacks) Change from Baseline, Mean",[3],0.00 min
same,"Average Duration of Weekly RP Attacks (All Attacks) Change from Baseline, Median",[3],2.16 min
same,"Average Duration of Weekly RP Attacks (All Attacks) Percent Change from Baseline, Mean",[3],−10.70%
same,"Average Duration of Weekly RP Attacks (All Attacks) Percent Change from Baseline, Median",[3],17.86%
same,"Average Duration of Weekly RP Attacks (All Attacks), Mean",[3],15.91 min
same,"Average Duration of Weekly RP Attacks (All Attacks), Median",[3],14.27 min
same,"Average Duration of Weekly RP Attacks (All Attacks) Change from Baseline, Mean",[4],-19.09 min
same,"Average Duration of Weekly RP Attacks (All Attacks) Change from Baseline, Median",[4],-19.09 min
same,"Average Duration of Weekly RP Attacks (All Attacks) Percent Change from Baseline, Mean",[4],−23.33%
same,"Average Duration of Weekly RP Attacks (All Attacks) Percent Change from Baseline, Median",[4],−23.33%
same,"Average Duration of Weekly RP Attacks (All Attacks), Mean",[4],62.73 min
same,"Average Duration of Weekly RP Attacks (All Attacks), Median",[4],62.73 min
same,Duration,Pooled Cilnidipine (n = 7),20%
same,"Average Duration of Weekly Symptomatic RP Attacks, Change from Baseline, Mean",[5],-7.67 min
same,"Average Duration of Weekly Symptomatic RP Attacks, Change from Baseline, Median",[5],-10.33 min
same,"Average Duration of Weekly Symptomatic RP Attacks, Mean",[5],21.70 min
same,"Average Duration of Weekly Symptomatic RP Attacks, Median",[5],30.45 min
same,"Average Duration of Weekly Symptomatic RP Attacks, Percent Change from Baseline, Mean",[5],−32.23%
same,"Average Duration of Weekly Symptomatic RP Attacks, Percent Change from Baseline, Median",[5],−34.60%
same,"Average Duration of Weekly Symptomatic RP Attacks, Change from Baseline, Mean",[6],-7.67 min
same,"Average Duration of Weekly Symptomatic RP Attacks, Change from Baseline, Median",[6],-10.33 min
same,"Average Duration of Weekly Symptomatic RP Attacks, Mean",[6],21.70 min
same,"Average Duration of Weekly Symptomatic RP Attacks, Median",[6],30.45 min
same,"Average Duration of Weekly Symptomatic RP Attacks, Percent Change from Baseline, Mean",[6],−32.23%
same,"Average Duration of Weekly Symptomatic RP Attacks, Percent Change from Baseline, Median",[6],−34.60%
same,"Average Duration of Weekly Symptomatic RP Attacks, Change from Baseline, Mean",[7],-7.67 min
same,"Average Duration of Weekly Symptomatic RP Attacks, Change from Baseline, Median",[7],-10.33 min
same,"Average Duration of Weekly Symptomatic RP Attacks, Mean",[7],21.70 min
same,"Average Duration of Weekly Symptomatic RP Attacks, Median",[7],30.45 min
same,"Average Duration of Weekly Symptomatic RP Attacks, Percent Change from Baseline, Mean",[7],−32.23%
same,"Average Duration of Weekly Symptomatic RP Attacks, Percent Change from Baseline, Median",[7],−34.60%
same,"Average Duration of Weekly Symptomatic RP Attacks, Change from Baseline, Mean",[8],-7.67 min
same,"Average Duration of Weekly Symptomatic RP Attacks, Change from Baseline, Median",[8],-10.33 min
same,"Average Duration of Weekly Symptomatic RP Attacks, Mean",[8],21.70 min
same,"Average Duration of Weekly Symptomatic RP Attacks, Median",[8],30.45 min
same,"Average Duration of Weekly Symptomatic RP Attacks, Percent Change from Baseline, Mean",[8],−32.23%
same,"Average Duration of Weekly Symptomatic RP Attacks, Percent Change from Baseline, Median",[8],−34.60%
same,"Average Duration of Weekly RP Attacks (All Attacks) Change from Baseline, Mean",[9],-3.55 min
same,"Average Duration of Weekly RP Attacks (All Attacks) Change from Baseline, Median",[9],-7.63 min
same,"Average Duration of Weekly RP Attacks (All Attacks) Percent Change from Baseline, Mean",[9],−23.71%
same,"Average Duration of Weekly RP Attacks (All Attacks) Percent Change from Baseline, Median",[9],−21.20%
same,"Average Duration of Weekly RP Attacks (All Attacks), Mean",[9],21.66 min
same,"Average Duration of Weekly RP Attacks (All Attacks), Median",[9],30.45 min
same,"Average Duration of Weekly RP Attacks (All Attacks) Change from Baseline, Mean",[10],-3.55 min
same,"Average Duration of Weekly RP Attacks (All Attacks) Change from Baseline, Median",[10],-7.63 min
same,"Average Duration of Weekly RP Attacks (All Attacks) Percent Change from Baseline, Mean",[10],−23.71%
same,"Average Duration of Weekly RP Attacks (All Attacks) Percent Change from Baseline, Median",[10],−21.20%
same,"Average Duration of Weekly RP Attacks (All Attacks), Mean",[10],21.66 min
same,"Average Duration of Weekly RP Attacks (All Attacks), Median",[10],30.45 min
same,"Average Duration of Weekly RP Attacks (All Attacks) Change from Baseline, Mean","Pooled Cilnidipine, ITT Part A",-3.55 min
same,"Average Duration of Weekly RP Attacks (All Attacks) Change from Baseline, Median","Pooled Cilnidipine, ITT Part A",-7.63 min
same,"Average Duration of Weekly RP Attacks (All Attacks) Percent Change from Baseline, Mean","Pooled Cilnidipine, ITT Part A",−23.71%
same,"Average Duration of Weekly RP Attacks (All Attacks) Percent Change from Baseline, Median","Pooled Cilnidipine, ITT Part A",−21.20%
same,"Average Duration of Weekly RP Attacks (All Attacks), Mean","Pooled Cilnidipine, ITT Part A",21.66 min
same,"Average Duration of Weekly RP Attacks (All Attacks), Median","Pooled Cilnidipine, ITT Part A",30.45 min
same,"Average Duration of Weekly RP Attacks (All Attacks) Change from Baseline, Mean",[11],-3.55 min
same,"Average Duration of Weekly RP Attacks (All Attacks) Change from Baseline, Median",[11],-7.63 min
same,"Average Duration of Weekly RP Attacks (All Attacks) Percent Change from Baseline, Mean",[11],−23.71%
same,"Average Duration of Weekly RP Attacks (All Attacks) Percent Change from Baseline, Median",[11],−21.20%
same,"Average Duration of Weekly RP Attacks (All Attacks), Mean",[11],21.66 min
same,"Average Duration of Weekly RP Attacks (All Attacks), Median",[11],30.45 min
same,"duration of Raynaud attacks, direction of change","cilnidipine or cilnidipine plus tadalafil (n=7), tadalafil monotherapy (n=2)",decrease greater than that seen in placebo treated patients
same,patients in whom reduction in duration exceeded a 25% threshold,cilnidipine or cilnidipine plus tadalafil treated patients,4 of 7
